Experimental data: patent US12290587B2, “Anti-aging cosmetic compositions” (GIVAUDAN SA, priority 2019, dated 2025)

System: Normal Human Dermal Fibroblasts
Assay: Mitochondrial mass (MitoTracker Green FM) in Normal Human Dermal Fibroblasts
Assay type: cell-based
Conditions: 20 mM, insulin 100 nM
Description: Normal Human Dermal Fibroblasts were isolated from skin biopsy coming from a breast reduction surgery on a person. 10′000 cells per well were seeded in a black 96-wells plate with DMEM (Dulbecco's Modified Eagle's Medium, Gibco) supplemented with 10% FCS (Fetal Calf Serum, Biowest) and 1% antibiotics (Sigma Aldrich) and were cultured for 72 hours in an incubator at 37° C. in a humid atmosphere containing 5% CO2. Cells were then rinsed two times with PBS (Phosphate Buffer Saline) before being incubated with FCS-free DMEM medium overnight in the same incubator. On the next day, the cells were treated with (i) mannose at 20 mM, (ii) mannose-6-phosphate at 20 mM or (iii) the above-mentioned Mannose-6-Phosphate complex at 20 mM (n=3) in the presence of insulin (100 nM). After 1 hour and 48 hours of treatment, MitoTracker™ Green FM (ThermoFisher) was added directly in each well for a final concentration of 200 nM and the plate was incubated in the dark in the incubator for 15 minutes. Cells were then rinsed off two times with PBS and each well was filled with 200 μl PBS. Fluorescence intensity of MitoTracker™ Green FM was measured with a microplate reader (Excitation wavelength: 488 nm/Emission wavelength: 525 nm). In this study, the mitochondrial mass in cells was determined using the fluorescence intensity emitted by MitoTracker™ Green FM.

SMILES: O=C[C@@H](O)[C@@H](O)[C@H](O)[C@H](O)COP(=O)(O)O [mannose-6-phosphate]
- decrease of MitoTracker Green FM specific signal (mitochondrial mass) (1 hour treatment): −53%
- decrease of MitoTracker Green FM specific signal (mitochondrial mass) (48 hours of treatment): −60%
